Source: PMC5216056 (Nature Communications, 2017)
Several values for one entry are separate records, joined by “and”; a condition that tells them apart may be missing. Identical values can stand only once. Like-named read-outs stand apart in the source and are kept apart here.

How the values were obtained:
[1] = target: T1, hCB1R (Homo sapiens, UniProt P21554); experiment: biochemical; assay type: biochemical; conditions: for Emax: read-out: Emax ± SEM GTPγS hCB1R
T1 construct: host or cells: CHO

[2] = 1 μM
[3] = target: T2, FAAH (Homo sapiens, UniProt O00519); experiment: FAAH activity, U937 cell homogenate; assay type: biochemical; conditions: for inhibition at 5 µM: read-out: FAAH % inhibition at 5 µM
T2 construct: host or cells: U937
T2 sequence (O00519 1-579): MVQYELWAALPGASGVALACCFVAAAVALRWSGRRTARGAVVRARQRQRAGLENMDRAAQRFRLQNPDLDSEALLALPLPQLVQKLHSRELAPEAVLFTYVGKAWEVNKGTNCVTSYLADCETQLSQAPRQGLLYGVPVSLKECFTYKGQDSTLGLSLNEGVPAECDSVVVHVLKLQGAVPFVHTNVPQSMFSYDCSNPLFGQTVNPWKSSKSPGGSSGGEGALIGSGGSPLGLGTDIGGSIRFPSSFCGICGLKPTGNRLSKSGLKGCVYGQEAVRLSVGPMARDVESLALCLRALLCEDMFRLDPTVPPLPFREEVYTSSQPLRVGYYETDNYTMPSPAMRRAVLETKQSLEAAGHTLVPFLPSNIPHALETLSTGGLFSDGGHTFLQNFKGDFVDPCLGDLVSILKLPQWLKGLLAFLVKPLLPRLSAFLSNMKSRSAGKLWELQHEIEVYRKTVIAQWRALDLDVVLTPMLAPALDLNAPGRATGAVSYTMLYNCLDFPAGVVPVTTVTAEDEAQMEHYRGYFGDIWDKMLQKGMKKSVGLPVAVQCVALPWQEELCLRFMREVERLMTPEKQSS
Protocol: FAAH activity was assessed using U937 cell homogenate (source: U937 cells were purchased from ATCC, Manassas, VA, USA). Tested compounds (at the concentrations of 1 and 5 μM) or solvent (≤1% of the final volume) were pre-incubated at 37 °C for 30 min with 100 μg of cell homogenate diluted in assay buffer (10 mM Tris-HCl and 1 mM EDTA, pH 7.6 and 1% w/v fatty acid-free BSA). Successively, a mixture of 99.5 nM […] of AEA and 0.5 nM of [ethanolamine-1-3H]-AEA (40–60 Ci mmol^−1) was added to the homogenate (final concentration of 100 nM) and incubated for 10 min at 37 °C under shaking. After the incubation time, 2 volumes of an ice-cold methanol: chloroform mixture 1:1 (v/v) were added to each sample, vigorously vortexed and centrifuged at 10,000g for 10 min at 4 °C to separate aqueous and organic phases. The aqueous phases were collected and the radioactivity associated with the hydrolysis product [3H]-ethanolamine was measured after addition of 3 ml of scintillation cocktail using the Tri-Carb 2100 TR scintillation counter. Data were collected from three independent experiments performed in triplicate and results were expressed as FAAH activity, relative to that in vehicle-treated samples (=100%).

[4] = target: T3, Rat recombinant TRPV2 (Rattus norvegicus, UniProt Q9WUD2); experiment: cell-based; assay type: cell-based; conditions: for IC50: vs LPC 3μM, read-out: TRPV2 IC50 for antagonism or desensitization
T3 construct: expressed in transfected cells; host or cells: HEK293 (plasmid a gift from HB Bradshaw, Indiana University)
T3 sequence (Q9WUD2 1-761): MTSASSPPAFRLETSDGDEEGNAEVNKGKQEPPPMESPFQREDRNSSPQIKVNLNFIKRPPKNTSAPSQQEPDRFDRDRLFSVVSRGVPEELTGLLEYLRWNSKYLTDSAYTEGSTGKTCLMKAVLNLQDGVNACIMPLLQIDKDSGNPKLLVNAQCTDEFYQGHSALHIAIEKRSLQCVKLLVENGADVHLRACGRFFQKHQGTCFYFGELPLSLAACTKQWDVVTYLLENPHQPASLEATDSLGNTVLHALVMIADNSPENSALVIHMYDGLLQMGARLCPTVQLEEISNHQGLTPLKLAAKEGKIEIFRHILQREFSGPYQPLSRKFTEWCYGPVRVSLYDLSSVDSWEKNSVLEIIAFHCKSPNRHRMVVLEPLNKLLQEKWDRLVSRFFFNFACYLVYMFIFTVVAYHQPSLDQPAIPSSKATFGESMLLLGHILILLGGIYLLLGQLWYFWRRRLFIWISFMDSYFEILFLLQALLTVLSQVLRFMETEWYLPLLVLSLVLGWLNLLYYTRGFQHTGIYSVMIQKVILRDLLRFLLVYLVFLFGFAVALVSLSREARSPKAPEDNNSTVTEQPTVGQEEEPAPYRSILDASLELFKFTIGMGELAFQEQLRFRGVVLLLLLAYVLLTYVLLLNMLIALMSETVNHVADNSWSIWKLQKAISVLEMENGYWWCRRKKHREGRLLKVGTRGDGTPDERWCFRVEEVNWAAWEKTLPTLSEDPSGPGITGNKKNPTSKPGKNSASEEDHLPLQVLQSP

[5] = target: T4, Rat recombinant TRPA1 (Rattus norvegicus, UniProt Q6RI86); experiment: cell-based; assay type: cell-based; conditions: for EC50: read-out: TRPA1 Potency EC50; for IC50: vs AITC 100μM, 5 min pre-incubation, read-out: TRPA1 IC50 for antagonism or desensitization
T4 construct: expressed in transfected cells

[6] = target: T5, hGPR55 (Homo sapiens, UniProt Q9Y2T6); experiment: cell-based
T5 construct: host or cells: CHO-K1 (PathHunter hGPR55_bgal)

[7] = target: T6, PPARgamma (h) (Homo sapiens, UniProt P37231); experiment: CEREP panel; assay type: binding; conditions: for inhibition at 10 µM: read-out: % inhibition PPARgamma (h)
T6 construct: CEREP (contract assay)
T6 sequence (P37231 1-505): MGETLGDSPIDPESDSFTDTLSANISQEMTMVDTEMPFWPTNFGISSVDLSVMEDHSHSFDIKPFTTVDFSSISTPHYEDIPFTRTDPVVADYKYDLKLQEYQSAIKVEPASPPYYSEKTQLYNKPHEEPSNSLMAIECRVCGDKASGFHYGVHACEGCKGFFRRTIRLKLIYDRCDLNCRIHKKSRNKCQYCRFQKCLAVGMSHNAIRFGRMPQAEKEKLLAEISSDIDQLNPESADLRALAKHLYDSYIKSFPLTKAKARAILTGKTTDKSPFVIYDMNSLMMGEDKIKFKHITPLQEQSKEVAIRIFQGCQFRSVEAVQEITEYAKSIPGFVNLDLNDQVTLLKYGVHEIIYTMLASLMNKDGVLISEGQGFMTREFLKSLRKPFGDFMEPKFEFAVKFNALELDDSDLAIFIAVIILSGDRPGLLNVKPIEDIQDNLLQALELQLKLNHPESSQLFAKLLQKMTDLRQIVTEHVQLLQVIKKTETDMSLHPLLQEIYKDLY

[8] = target: T7, kappa (KOP) (Rattus norvegicus, UniProt P34975); experiment: CEREP panel; assay type: binding; conditions: for % inhibition kappa (KOP): 10 µM
T7 construct: CEREP (contract assay)

[9] = tested on: AR (h); experiment: CEREP panel; assay type: binding, human; conditions: 10 µM
[10] = tested on: BZD (central); assay type: binding; conditions: 10 µM
[11] = 1 μM; remark: listed apart in the source
[12] = β-arrestin recruitment, read-out: GPR55 pEC50 (± SEM) (converted)

T5 sequence (Q9Y2T6 whole entry): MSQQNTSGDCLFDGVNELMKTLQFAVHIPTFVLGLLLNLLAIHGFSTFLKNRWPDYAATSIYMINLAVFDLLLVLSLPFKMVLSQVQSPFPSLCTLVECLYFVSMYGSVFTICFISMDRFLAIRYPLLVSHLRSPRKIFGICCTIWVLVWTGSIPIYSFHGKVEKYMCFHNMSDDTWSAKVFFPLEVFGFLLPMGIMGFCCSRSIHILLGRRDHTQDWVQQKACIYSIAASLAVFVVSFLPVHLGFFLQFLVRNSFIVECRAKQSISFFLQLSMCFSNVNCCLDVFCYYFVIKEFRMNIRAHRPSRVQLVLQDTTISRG
T4 sequence (Q6RI86 whole entry): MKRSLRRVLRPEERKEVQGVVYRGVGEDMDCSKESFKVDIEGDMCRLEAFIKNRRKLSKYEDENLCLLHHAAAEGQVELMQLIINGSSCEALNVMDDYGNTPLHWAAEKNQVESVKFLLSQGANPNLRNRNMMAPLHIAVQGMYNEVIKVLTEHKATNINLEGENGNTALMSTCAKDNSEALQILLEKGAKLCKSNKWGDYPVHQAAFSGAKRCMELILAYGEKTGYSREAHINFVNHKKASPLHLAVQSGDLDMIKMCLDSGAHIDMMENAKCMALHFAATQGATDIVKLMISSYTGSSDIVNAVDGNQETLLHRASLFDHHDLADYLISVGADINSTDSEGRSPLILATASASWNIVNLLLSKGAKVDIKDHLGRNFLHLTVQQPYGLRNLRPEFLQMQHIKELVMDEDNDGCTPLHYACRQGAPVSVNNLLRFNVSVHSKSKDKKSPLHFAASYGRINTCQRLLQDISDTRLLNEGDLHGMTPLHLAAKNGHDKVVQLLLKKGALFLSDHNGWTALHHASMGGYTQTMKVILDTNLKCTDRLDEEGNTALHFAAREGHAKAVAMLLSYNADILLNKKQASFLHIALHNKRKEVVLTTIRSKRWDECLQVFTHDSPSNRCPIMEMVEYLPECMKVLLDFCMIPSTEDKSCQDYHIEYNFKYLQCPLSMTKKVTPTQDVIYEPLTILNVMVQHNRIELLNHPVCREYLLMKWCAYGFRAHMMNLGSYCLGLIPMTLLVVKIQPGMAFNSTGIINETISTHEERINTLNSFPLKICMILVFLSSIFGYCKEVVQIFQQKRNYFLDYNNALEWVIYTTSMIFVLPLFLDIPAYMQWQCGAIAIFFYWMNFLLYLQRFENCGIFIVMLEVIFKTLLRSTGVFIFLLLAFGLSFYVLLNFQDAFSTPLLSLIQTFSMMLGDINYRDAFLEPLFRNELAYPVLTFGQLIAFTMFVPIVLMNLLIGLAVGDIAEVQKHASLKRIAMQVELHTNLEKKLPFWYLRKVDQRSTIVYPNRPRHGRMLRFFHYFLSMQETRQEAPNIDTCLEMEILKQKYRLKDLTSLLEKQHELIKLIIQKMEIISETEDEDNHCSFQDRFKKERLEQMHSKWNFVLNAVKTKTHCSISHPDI
T7 sequence (P34975 whole entry): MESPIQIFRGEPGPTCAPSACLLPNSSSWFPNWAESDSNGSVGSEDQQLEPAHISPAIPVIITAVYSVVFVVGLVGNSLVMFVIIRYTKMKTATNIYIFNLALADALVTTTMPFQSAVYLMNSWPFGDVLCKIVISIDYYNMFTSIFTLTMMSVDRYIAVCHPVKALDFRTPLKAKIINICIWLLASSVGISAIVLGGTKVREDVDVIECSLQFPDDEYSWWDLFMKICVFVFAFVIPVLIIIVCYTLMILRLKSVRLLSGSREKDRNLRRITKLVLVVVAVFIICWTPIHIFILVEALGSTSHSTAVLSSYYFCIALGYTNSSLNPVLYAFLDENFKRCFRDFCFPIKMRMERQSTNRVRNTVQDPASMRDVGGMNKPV
T1 sequence (P21554 whole entry): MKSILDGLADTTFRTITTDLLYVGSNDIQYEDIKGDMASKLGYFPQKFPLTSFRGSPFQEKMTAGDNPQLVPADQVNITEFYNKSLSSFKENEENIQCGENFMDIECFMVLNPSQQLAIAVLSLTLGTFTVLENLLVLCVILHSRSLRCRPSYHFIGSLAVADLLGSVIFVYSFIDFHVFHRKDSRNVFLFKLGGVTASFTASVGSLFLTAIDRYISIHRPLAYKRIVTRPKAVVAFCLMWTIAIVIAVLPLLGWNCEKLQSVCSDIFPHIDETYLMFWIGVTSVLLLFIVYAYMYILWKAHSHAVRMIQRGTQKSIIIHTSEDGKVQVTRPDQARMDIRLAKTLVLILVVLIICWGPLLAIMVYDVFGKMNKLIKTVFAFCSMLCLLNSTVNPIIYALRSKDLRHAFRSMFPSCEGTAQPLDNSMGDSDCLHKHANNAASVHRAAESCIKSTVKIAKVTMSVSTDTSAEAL

Compound | CL microsomes human [2] [µL/min/mg protein] | TRPV2 Efficacy (% ionomycin 4μM) [4] [%] | IC50 [4] [µM] | TRPA1 Efficacy (%AITC 100μM) [5] | EC50 [5] [µM] | IC50 [5] [µM] | % inhibition PPARgamma (h) ([7]; 10 µM) [%] | % inhibition AR (h) [9] [%] | % inhibition BZD (central) [10] [%] | other results
CN1CCCCC1Cn1cc(C(=O)c2cc([N+](=O)[O-])ccc2I)c2ccccc21 (racemic) [(rac)-AM1241] | 111 |  |  |  |  |  |  |  |  | Emax ± SEM GTPγS hCB1R [1]: 42 ± 6
CCCCC/C=C\C/C=C\C/C=C\C/C=C\CCCC(=O)OC(CO)CO [2-AG, 2-arachidonoyl glycerol] |  |  |  |  |  |  |  |  |  | Emax [1]: 71 ± 20%
CN1CCCC[C@@H]1Cn1cc(C(=O)c2cc([N+](=O)[O-])ccc2I)c2ccccc21 [(R)-AM1241] | 304 | 14.5 | 35.5 | 19.8% | 19.5 | > 50 |  |  |  | FAAH % inhibition at 5 µM ([3]; 5 µM, U937 cell homogenate): < 25%; EC50 ([4]; read-out: TRPV2 Potency EC50): 12 µM; Emax ± SEM GTPγS hCB1R [1]: 47 ± 8; pEC50 ± SEM GTPγS hCB1R [1]: 6.78 ± 0.40
Cc1c(C(=O)NN2CCCCC2)nn(-c2ccc(Cl)cc2Cl)c1-c1ccc(I)cc1 [AM251] |  | < 10 |  | 44.4% |  |  | 55 |  |  | FAAH % inhibition at 5 µM ([3]; 5 µM, U937 cell homogenate): < 50% and 30–40%; GPR55 pEC50 (± SEM) [6]: 5.49±0.09; GPR55 Emax ± SEM (%) or % effect at 10 µM ([6]; β-arrestin recruitment): 82±9%; % inhibition kappa (KOP) [8]: 94%
CCCCC/C=C\C/C=C\C/C=C\C/C=C\CCCC(=O)NCCO [Anandamide, N-arachidonoylethanolamine] |  |  |  |  |  |  |  |  |  | EC50 [6, 12]: > 10 µM
CCCCCCC(C)(C)c1ccc([C@@H]2C[C@H](O)CC[C@H]2CCCO)c(O)c1 [CP55940] |  |  |  |  |  |  |  | -28 | -9 | Emax [1]: 92 ± 5%; EC50 [6, 12]: > 10 µM; inhibition at 10 µM ([7]; 10 µM): 85%; inhibition at 10 µM [8]: 74%
CCCCCCC(C)(C)c1cc(OC)c([C@@H]2C=C(CO)[C@@H]3C[C@H]2C3(C)C)c(OC)c1 [HU308] |  | < 10 | > 100 | 43.1% | 18.5 | > 100 |  |  | -26 | inhibition at 5 µM [3]: < 25%; EC50 [1]: > 10 µM; Emax [1]: 17 ± 9%; EC50 [6]: > 10 µM; Emax at 10 µM ([6]; read-out: GPR55 Emax ± SEM (%) or % effect at 10 µM): -6 ± 5%; inhibition at 10 µM [7]: 14%
CCCCCCC(C)(C)c1cc(OC)c(C2=C[C@H]3CC[C@]2(CO)C3(C)C)c(OC)c1 [HU910] | 90 | < 10 | > 100 | 33.1% | 53.1 | > 100 | 17 |  | 0 | FAAH % inhibition at 5 µM ([3]; 5 µM, U937 cell homogenate): < 25%; pEC50 ± SEM GTPγS hCB1R [1]: < 5; GPR55 Emax ± SEM (%) or % effect at 10 µM ([6]; β-arrestin recruitment): -10 ± 3%; GPR55 pEC50 (± SEM) ([6]; β-arrestin recruitment): < 5; CL hepatocytes human [11]: 9.2 µL/min/mio cells
CCCn1c(C)c(C(=O)c2cccc3ccccc23)c2ccccc21 [JWH015] | 41 |  |  |  |  |  | 67 | 0 | -57 | GPR55 pEC50 (± SEM) ([6]; β-arrestin recruitment): < 5; CL hepatocytes human [11]: 16 µL/min/mio cells; % inhibition kappa (KOP) [8]: 53%
CCCC(C)(C)c1ccc2c(c1)OC(C)(C)[C@@H]1CC=C(C)C[C@@H]21 [JWH133] | 38 | < 10 | > 100 | 76.8% and 77 ± 4% and 76.8±3.8% | 8.5 ± 2.3 | 20 | -5 |  | -22 | Emax ± SEM GTPγS hCB1R [1]: 20%; pEC50 ± SEM GTPγS hCB1R [1]: 7.37 ± 0.16; GPR55 Emax ± SEM (%) or % effect at 10 µM ([6]; β-arrestin recruitment): -2 ± 3%; GPR55 pEC50 (± SEM) ([6]; β-arrestin recruitment): < 5; CL hepatocytes human [11]: 5.6 µL/min/mio cells
Cc1c(C(=O)NN2CCCCC2)nn(-c2ccc(Cl)cc2Cl)c1-c1ccc(Cl)cc1 [SR141716A] |  | < 10 | > 100 | 67.3% and 67 ± 1% | 1.9 | 12.5 |  | 4 |  | inhibition at 5 µM ([3]; 5 µM, U937 cell homogenate): < 25%
SR144528 |  | < 10 |  | 43.8% |  |  | 31 | -12 | -3 | 
